What was measured:
[1] = tested on: embryonic stem cells; experiment: RT-PCR analysis of insulin (INS) and amylase (AML) transcripts in embryonic stem cells differentiated with retinoic acid; format: cell-based; design: key to Abundance of Insulin RT-PCR Product (INS) / Abundance of Amylase RT-PCR Product (AML): +: Indicates relative abundance; −: No RT-PCR band observed
Method: Embryonic stem cell lines were cultured and spilt 1:8 every three days for 4 passages on gelatin coated Tissue Culture (TC) dishes without Mouse Embryonic Fibroblasts (MEF's) (with 1500 units/ml Lymphocyte Inhibitory Factor (LIF) in media) to remove MEF's from culture. The resulting stem cells were then differentiated as follows:
On day 1, the stem cells were treated with trypsin to break up some aggregation and then suspended in 1% Fetal Calf Serum (FCS) Media (without LIF). The stem cells were then allowed to self-aggregate into embryoid bodies in suspension culture in bacterial petri dishes. On day 3, the cells were given a fresh media change and then split among two bacterial petri dishes (sample and control). A solution containing 1 μM retinoic acid was intermixed with the sample and both the control (no retinoic acid) and the sample were allowed to sit at 37° C. Fresh media were supplied at day 5 (with fresh 1 μM retinoic acid for the treated sample). At day 7, fresh media was supplied for both, with no retinoic acid (retinoic acid only present from days 3 to 7).
Fresh media was supplied again on day 9. On […] the cells were again trypsinized and then placed into TC dishes with 10% FCS media (no LIF). Small aliquots were taken at various times (days 14, 17, 19, 22, and 25) from the cultures and were saved for later analysis by reverse transcriptase polymerase chain reaction (RT-PCR).
On day 14, the media was changed for the two groups of cells (10% FCS) in each population (control and sample). On day 17, the media was changed again.
On day 19, adherent cells were gently blown off by pipetting, then trypsinized and resuspended in 10% FCS in bacterial petri dish suspension cultures. On days 22 and 25, the remaining cells were collected and a portion retained for RT-PCR analysis.
All culturing from day 1 forward was performed in 25 millimolar (mM) glucose (high glucose) until after day 19, when it was changed to 5.5 millimolar glucose (lower glucose) The glucose concentrations ranged from 30 mM to 10 mM on the high end and 0.5 mM-5 mM on the low end.
Total RNA from each aliquot collected above was purified as instructed with a Qiagen RNeasy® Mini purification kit (obtained commercially from Qiagen Inc.). The presence of specific RNA transcripts (i.e. insulin) was determined by RT-PCR using gene specific oligonucleotide primers as instructed with a Qiagen® OneStep RT-PCR kit (obtained commercially from Qiagen Inc.). Total RNA was prepared from cultures of differentiating ES cells. RT-PCR analyses were performed with appropriate oligonucleotide primers (INS-insulin) or the pancreatic specific product amylase (AML).

[2] = tested on: embryoid bodies; experiment: Immunoperoxidase cytochemistry for insulin in suspended embryoid bodies; format: cell-based; conditions: retinoic acid days 3 to 7; suspension culture; day 32; versus control lacking primary antibody; FIG. 4
Method: Embryonic stem cell lines were cultured as described above for Examples 1-10 on gelatin coated Tissue Culture (TC) dishes without Mouse Embryonic Fibroblasts (MEF's) (with 1500 units/ml Lymphocyte Inhibitory Factor (LIF) in media) to remove MEF's from culture. The resulting stem cells were then differentiated as described above (with retinoic acid during treatment during days 3 to 7) except that the formed embryoid bodies were maintained in suspension for the duration of the experiment as opposed to being separated and adhered to TC dishes. All culturing from day 1 forward was performed in 25 millimolar (mM) glucose (high glucose) until after day 19, when it was changed to 5.5 millimolar glucose (physiological glucose).

[3] = Ex. 10, lane 5, 1 μM retinoic acid days 3 to 7, day 25, glucose 5.5 mM

## CC1=C(/C=C/C(C)=C/C=C/C(C)=C/C(=O)O)C(C)(C)CCC1 [retinoic acid]
[1]; Ex. 9, lane 4, 1 μM retinoic acid days 3 to 7, day 22, glucose 5.5 mM
  Abundance of Insulin RT-PCR Product (INS): +
[1]; [3]
  Abundance of Amylase RT-PCR Product (AML): −
  Abundance of Insulin RT-PCR Product (INS): −
[1]; stem cells treated with retinoic acid, aliquots at days 14, 17, 19 and 22, FIG. 1
  Formation of insulin-producing cells (correctly sized insulin-specific RT-PCR band): insulin-producing cells resulted
[2]
  Insulin protein in embryoid bodies by specific antibody staining: produce insulin

Source: patent US20030032183A1, “Stem cell differentiation” (priority 2001, published 2003)
